Measurements: patent US8048900B2, “Use of 15-lipoxygenase inhibitors for treating obesity” (Genfit S.A., priority 2006, dated 2011)
Where two headings read alike, the source gives them in different places.

Assays:
15-LO = 15-LO inhibition, cited from earlier work
[1] = system: human abdominal visceral PA; test: aP2 marker expression during differentiation of human abdominal visceral pre-adipocytes (RT-PCR / RT-QPCR); format: cell-based
Description: (§1) HWP from Promocell are maintained in PA growth medium (0.4% ECGS/H, 5% FCS, 10 ng/ml EGF, 1 μg/ml hydrocortisone, 50 ng/ml amphotericin B, 50 μg/ml gentamycin) until confluence. When cells reach confluence, they are differentiated for 3 days in PA differentiation medium (8 μg/ml d-biotin, 0.5 μg/ml recombinant human insulin, 400 ng/ml dexamethasone, 44 μg/ml IBMX, 9 ng/ml L-thyroxin, 3 μg/ml ciglitazone, 50 ng/ml amphotericin B, 50 ng/ml gentamycin), then cultured to the terminal differentiation stage in adipocyte nutritive medium (3% FCS, 8 μg/ml d-biotin, 0.5 μg/ml recombinant human insulin, 400 ng/ml dexamethasone, 50 ng/ml amphotericin B, 50 μg/ml gentamycin). PA from Cambrex are maintained in PA growth medium (10% FCS, 100 U/ml penicillin, 100 μg/ml streptomycin) until confluence, then the medium is replaced by differentiation medium (10% FCS, 10 μg/ml recombinant human insulin, 1 μM dexamethasone, 500 μM IBMX, 200 μM indomethacin, 100 U/ml penicillin, 100 μg/ml streptomycin) throughout the differentiation process. Extraction of RNA and Analysis of 15-LO-1 and aP2 Gene Expression by RT-PCR and RT-QPCR
Human abdominal visceral PA from several donors are differentiated as described in example 4. PD146176 diluted in DMSO is added when the PA reached confluence (D0) and is maintained in the medium during the differentiation of PA to adipocytes. DMSO at 0.1% final concentration is added to the culture medium as negative control.
aP2 (adipocyte lipid-binding protein), like adiponectin, is a marker of adipocyte differentiation. Total RNA is extracted from the cells at different times during differentiation (D3, D7) as described in example 3 and expression of the aP2 marker is analyzed by RT-PCR or RT-QPCR as described in examples 1 and 2. Relative expression is reported with reference to the day of confluence (D0) and normalized to cyclophilin expression.

[2] = system: human abdominal visceral PA; test: Adiponectin secretion during differentiation of human abdominal visceral pre-adipocytes; format: cell-based; details: culture supernatant, D7 of differentiation, treated from D0, PA culture No. 3 passage 4
Description: as §1, with “Extraction of RNA and Analysis of 15-LO-1 and aP2 Gene Expression by RT-PCR and RT-QPCR” left out
Adiponectin is a factor secreted by adipocytes and, like aP2, serves as a marker of adipocyte differentiation in our cultures. Adiponectin concentrations is determined in culture supernatants at different times during differentiation using the Quantikine human adiponectin/ACRP30 kit according to the supplier's instructions (R&D, Minneapolis, Minn., USA).

3T3-L1 cells [3] = test: aP2 and LPL expression by RT-QPCR in 3T3-L1 cells during differentiation; format: cell-based, mouse; details: addition at D0, starting from D3 of differentiation
Description: (§2) The mouse PA 3T3-L1 cell line (ATCC) is maintained in DMEM (Dulbecco's Modified Eagle's minimal essential Medium) supplemented with 10% FCS, L-glutamine and a penicillin/streptomycin mixture. At confluence (D0), 3T3-L1 cells are differentiated by a two-day treatment with a mixture of dexamethasone (0.1 μM), isobutylmethylxanthine (0.25 mM) and insulin (0.4 μM). Cells are then maintained on insulin for another 14 days until differentiation is complete. Photographs are taken at different times after confluence in order to visually follow the differentiation process.
(§3) PD146176 is added to the 3T3-L1 cells when they reach confluence (D0) and is maintained throughout the differentiation process with replacement every other day at the same time as the insulin.
Total RNA is extracted at different times during differentiation as described in example 3 and expression of the aP2 and LPL (lipoprotein lipase) genes is analyzed by RT-QPCR according to the method described in example 2 (see Table 9).

3T3-L1 cells [4] = test: Assay of intracellular triglycerides in 3T3-L1 cells; format: cell-based, mouse
Description: The mouse PA 3T3-L1 cell line (ATCC) is maintained in DMEM (Dulbecco's Modified Eagle's minimal essential Medium) supplemented with 10% FCS, L-glutamine and a penicillin/streptomycin mixture. At confluence (D0), 3T3-L1 cells are differentiated by a two-day treatment with a mixture of dexamethasone (0.1 μM), isobutylmethylxanthine (0.25 mM) and insulin (0.4 μM). Cells are then maintained on insulin for another 14 days until differentiation is complete. Photographs are taken at different times after confluence in order to visually follow the differentiation process. PD146176 is added to the 3T3-L1 cells when they reach confluence (D0) and is maintained throughout the differentiation process with replacement every other day at the same time as the insulin. To assay intracellular triglycerides, the 3T3-L1 cells are differentiated in 24-well microtiter plates. Cells are washed three times in PBS, then 500 μl of homogenization buffer (150 mM NaCl, Tris HCL pH 8, 0.1% Triton X-100) are added to each well. The cells are scraped into a tube and lysed by sonication for 10 seconds at 40 watts. The lysate is then filtered on a 0.2 μM millipore filter. The assay is carried out on 125 μl of the resulting lysate using the Triglyceride L-type kit (Wako). The assay is normalized for the protein content of the lysates.

3T3-L1 cells [5] = test: 3T3-L1 cell morphology during adipocyte differentiation; format: cell-based, mouse; details: addition at D0, photographs during differentiation
Description: as §2, §3

3T3-L1 cells [6] = test: Quantification of 3T3-L1 differentiation with AdipoRed; format: cell-based, mouse; details: addition at D0, starting from D3 of differentiation
Description: as §2, §3
The gradual accumulation of intracellular droplets is also used as a functional marker of differentiation to adipocytes. To quantify this accumulation the 3T3-L1 cells are differentiated in 96-well microtiter plates. The plates are removed from the incubator on the day of the assay in order to reequilibrate to room temperature. The medium is removed, the cells carefully rinsed with 200 μl PBS, and 200 μl PBS are then added to each well followed by 5 μl AdipoRed reagent (Cambrex, Paris, France). The plates are mixed before measuring fluorescence on a fluorimeter at an excitation wavelength of 485 nm and an emission wavelength of 535 nm.

rat PA [7] = test: Rat primary PA morphology during adipocyte differentiation; format: cell-based; details: 2.2 μM added at D0
Description: (§4) Cells from the VS fraction (isolated by the same method as that described in example 3) are seeded in 6-well plates at a density of 80,000 cells/cm^2 in medium 199 (Gibco) supplemented with 10% FCS and a penicillin/streptomycin mixture. After a 16-hour incubation to allow cell adherence, the wells are gently rinsed with PBS to remove any non-adherent material. The cells are grown to confluence (D0) at which time the medium 199 is removed and replaced by ITT medium (DME/Ham's F12, 15 mM NaHCO3, 15 mM Hepes, 33 μm biotin, 17 μM panthotenate, 0.5 μM human insulin, 0.2 nM triiodothyronine and antibiotics) without addition of serum. Cells are maintained in this medium to enable differentiation; the medium is changed every 2-3 days during the differentiation process.
(§5) Caffeic acid (2.2 μM) was added when the rat PA reach confluence (D0) and is maintained during the adipocyte differentiation process. At a concentration of 2.2 μM, caffeic acid is considered as a selective inhibitor of 15-LO (Shureiqi I, Chen D, Lee J J, Yang P, Newman R A, Brenner D E, Lotan R, Fischer S M and Lippman S M, 2000). DMSO is added to 0.1% final concentration to the culture medium as negative control.

rat PA [8] = test: aP2 expression in rat primary PA during adipocyte differentiation; format: cell-based; details: 2.2 μM added at D0, read at D3
Description: as §4
as §5, with “DMSO is added to 0.1% final concentration to the culture medium as negative control.” left out
Total RNA is extracted at different times during differentiation according to the method described in example 3 and aP2 and LPL gene expression is analyzed by quantitative RT-PCR as described in example 2 (see Table 10).

[9] = value quoted from prior patents

COc1ccc(C(=O)Nc2ccc(Cl)c(Cl)c2)cc1N [3-amino-N-(3,4-dichlorophenyl)-4-methoxy-benzamide]
IC50 (15-LO; [9]): 10 nM

c1ccc2c(c1)SCc1c-2[nH]c2ccccc12 [PD146176, 6,11-dihydro-5-thia-11-aza-benzo[a]-fluorene]
expression of the aP2 marker ([1]; RT-PCR, D3 of differentiation, PA culture No. 1 passage 7, increasing concentrations added at D0): decreases the expression of the aP2 marker in a dose-dependent manner | inhibition of 15-LO-1 expression ([1]; RT-QPCR, D7, 3 μM from D0, PA culture No. 2): almost completely | inhibition of 15-LO-1 expression ([1]; RT-QPCR, D7, 3 μM from D0, PA culture No. 3): 90% | aP2 expression ([1]; RT-QPCR, D7 of differentiation, 3 μM from D0, PA cultures No. 2 and No. 3, vs DMSO-treated or untreated cells): strongly inhibited | adiponectin secretion [2]: sharply decreased | expression of LPL marker (3T3-L1 cells [3]): dose-dependent decrease | expression of aP2 marker (3T3-L1 cells [3]): dose-dependent decrease | decrease in triglyceride accumulation relative to the control (3T3-L1 cells [4]; 10 μM, D10): 80% | triglyceride accumulation (3T3-L1 cells [4]; addition at D0): dose-dependent decrease | IC50 (15-LO; value quoted from prior literature/patents): 500 to 800 nM | IC50 (15-LO; [9]): 200 nM | lipid accumulation in the cells (morphology) (3T3-L1 cells [5]): dose-dependent inhibition of lipid accumulation | AdipoRed staining (3T3-L1 cells [6]): sharply decreases AdipoRed staining in a dose-dependent manner

COc1ccc(-c2cc3cc(F)c(F)cc3[nH]2)cc1NS(=O)(=O)NC(=O)OCC(C)C [[[[5-(5,6-difluoro-1H-indol-2-yl)-2-methoxyphenyl]amino]sulfonyl]carabamic acid isobutyl ester]
IC50 (15-LO; [9]): 14 nM

O=C(O)/C=C/c1ccc(O)c(O)c1 [caffeic acid]
lipid accumulation in the cells (morphology) (rat PA [7]): inhibition of lipid accumulation | aP2 expression (rat PA [8]): decreases aP2 expression
